From patent US20210352950A1 (priority 2019, published 2021)
“Also recorded” adds a separate entry of the source.

Key:
[1] = tested on: KRAS mutant CRC cells (HCT116, DLD1, CT26.WT); conditions: for effect on cell death induction by STS and vitamin C cotreatment: STS condition, GSH 5 mM or NAC 5 mM co-treated with vitamin C 350 μM, 24 hours
FTH = FTH protein expression in cells (western blot); type: cell-based, human and murine; conditions: HCT116, CTR and STS, hemin 20 μM 12 hours
Experimental: Cells were washed twice in ice-cold PBS and lysates were prepared in RIPA lysis buffer (50 mM Tris HCl pH 7.4, 150 mM NaCl, 1% NP-40, 0.25% deoxycholic acid, 1 mM EDTA) supplemented with protease and phosphatase inhibitors (protease inhibitor cocktail set III EDTA-free, Calbiochem, Cat. #: S39134; PhosStop, Roche), Samples were sonicated (bioruptor plus, diogenode) and centrifuged at 16.1 g for 30 minutes at 4° C. Tumor tissues were collected and snap frozen in liquid nitrogen immediately after mice were sacrificed, and stored in -80° C. until use. […] Protein concentrations were determined by BCA assay (Thermo Fisher Scientific, Cat. #: 23225). Proteins were diluted in 1× Laemmli sample buffer, boiled at 95° C. for 5 minutes and 30 μg of total proteins were separated by using SDS-PAGE and analyzed by western blotting by standard procedures. […] Membranes were incubated overnight at 4° C. with gentle shaking with the following primary antibodies: […] ADI-SPA894), FTH (1:1000, Cell Signaling, Cat. #: 3998), AMPK (1:1000, Cell Signaling, Cat. #: 2532), phospho-[…] AMPK (1:1000, Cell Signaling, Cat. #: 2535), eIF2a (1:1000, Cell signaling, Cat. #: 5324), phospho […] eIF2a (1:1000, Cell signaling, Cat. #: 3597), AKT (1:1000, Cell Signaling, Cat. #: 9272), phospho-[…] […] Bands intensity was quantified with NIH Image J software (version 1.48v).

HO-1 = HO-1 expression in HCT116 (qPCR, western blot); type: cell-based, human; conditions: HCT116, CTR and STS, hemin 20 μM 12 hours
Experimental: Cells were washed twice in ice-cold PBS and lysates were prepared in RIPA lysis buffer (50 mM Tris HCl pH 7.4, 150 mM NaCl, 1% NP-40, 0.25% deoxycholic acid, 1 mM EDTA) supplemented with protease and phosphatase inhibitors (protease inhibitor cocktail set III EDTA-free, Calbiochem, Cat. #: S39134; PhosStop, Roche), Samples were sonicated (bioruptor plus, diogenode) and centrifuged at 16.1 g for 30 minutes at 4° C. Tumor tissues were collected and snap frozen in liquid nitrogen immediately after mice were sacrificed, and stored in -80° C. until use. […] Protein concentrations were determined by BCA assay (Thermo Fisher Scientific, Cat. #: 23225). Proteins were diluted in 1× Laemmli sample buffer, boiled at 95° C. for 5 minutes and 30 μg of total proteins were separated by using SDS-PAGE and analyzed by western blotting by standard procedures. […] Membranes were incubated overnight at 4° C. with gentle shaking with the following primary antibodies: […] ADI-SPA894), FTH (1:1000, Cell Signaling, Cat. #: 3998), AMPK (1:1000, Cell Signaling, Cat. #: 2532), phospho-[…] […] Bands intensity was quantified with NIH Image J software (version 1.48v). […] Resulting cDNA (1/20 v/v) was analyzed by real-time polymerase reaction (qRT-PCR) using TaqMan MBG probes with FAM reporter dyes. […]

HCT116 cells [2] = assay: Muse cell viability assay (percentage of dead cells); conditions: for effect on STS + vitamin C cytotoxicity: HCT116, STS medium supplemented with transferrin, vitamin C 350 μM
HCT116 cells [3] = assay: MTT assay; type: cell-based, human; conditions: HCT116, 24 hours-STS before and during oxaliplatin 40 μM 24 hours
Text: The MTT [3-(4,5-Dimethylthiazol-2-yl)-2,5-diphenyltetrazolium bromide] assay is a quantitative colorimetric assay used to determine cell viability (Mosmann, 1983). MTT is characterized by a yellow colour, and upon its reduction to formazan by mitochondrial dehydrogenases, turns into a purple molecule, which has an absorbance peak at 570 nm. The absorbance is proportional to the amount of formazan produced, thus giving a measure of living cells, since the reaction only occur in living and metabolically active cells (Mosmann, 1983).
To evaluate viability, cells were seeded into a 96-well plate (2000 cells per well) in CTR medium. 24 hours later, cells were rinsed twice in 1×PBS, and CTR or STS medium was added. […] At the end of the experiment, medium was removed and cells were incubated with 100 μl of MTT (Sigma-Aldrich, Cat. #: M2128) solution (0.5 mg/ml, dissolved in medium) per well, for 3 hours at 37° C. in the dark. Next, 100 μl of lysis buffer (10% SDS, HCl 0.01M) were added to each well to dissolve formazan crystals and plates were incubated overnight at 37° C. Absorbance was recorded at the wavelength of 570 nm using a microplate reader (Infinite M200 TECAN). The absorbance values of media background were subtracted from the absorbance of each sample. No-treated samples were used as reference values (100% survival) to normalize the absorbance of treated samples.

HCT116 cells [4] = assay: Erythrosin B exclusion assay; type: cell-based, human; conditions: HCT116, 24 hours-STS before and during oxaliplatin 40 μM 24 hours
Experimental: Erythrosin B is a vital dye that is impermeable to biological membranes, thus staining only unviable cells with disintegrated membranes (Kim et al., 2016).
The next day, cells were rinsed twice in 1×PBS and CTR or STS medium was added. […] Cell death was measured by erythrosine B exclusion assay. Cell suspension was diluted 1:1 with erythrosin B 0.1% in PBS (Sigma-Aldrich, Cat. #: 200964), then cells were counted in a Bürker chamber, and percentage of cell death was calculated as the number of Erythrosin B-positive cells with respect to the total number of cells.

ROS in HCT116 cells = assay: CellROX reactive oxygen species measurement; type: cell-based, human; conditions: HCT116, GSH one hour prior to vitamin C 1 mM
Experimental: Intracellular reactive-oxygen species (ROS) were measured using the CellROX oxidative stress reagents (Life Technologies, Cat. #: 10422). CellROX fluorogenic probe is designed to measure reactive-oxygen species (ROS) in live cells. […] For ROS measurement, cells were seeded in 10 cm petri dish (4×10^5 cells in CTR medium). After 24 hours cells were rinsed twice in 1×PBS and CTR or STS medium was added. 24 hours later, cells were trypsinized, resuspended in their respective media, and treated with 1 mM sodium ascorbate and 1 μM CellROX deep red reagent in the dark, for 30 minutes at 37° C. and 5% CO2. Then, fluorescence was immediately analyzed by flow cytometry (Attune NxT flow cytometer). Data were processed by Kaluza analysis software (Beckman coulter, version 2.0). Data were expressed as fold change of the median fluorescent intensity (MFI) of each treated sample versus the MFI of control sample.

CC(=O)N[C@@H](CS)C(=O)O [NAC, N-acetyl cysteine]
effect on cell death induction by STS and vitamin C cotreatment [1]: able to revert the massive cell death induction

hemin
effect on cancer cell death induced by vitamin C alone or with STS ([1]; hemin 20 μM 3 hours before vitamin C 350 μM, CTR or STS): able to reverse cancer cell death
FTH protein expression level (FTH): increases
HO-1 protein expression level (HO-1): increases

MnTMPyP
effect on cell death upon STS + vitamin C (HCT116 cells [2]; HCT116, STS, MnTMPyP 50 μM before vitamin C 350 μM 24 hours): inhibited cell death upon combinatorial treatment

O=C1[O][Pt]2([NH][C@@H]3CCCC[C@H]3[NH]2)[O]C1=O [oxaliplatin]
percentage of metabolically active cells (MTT) (HCT116 cells [3]): significantly decrease the percentage of metabolically active cells
percentage of cell death (HCT116 cells [4]): increase the percentage of cell death

CC(=O)N(O)CCCCCNC(=O)CCC(=O)N(O)CCCCCNC(=O)CCC(=O)N(O)CCCCCN [DFO, desferrioxamine]
effect on vitamin C-induced cytotoxicity (HCT116 cells [2]; HCT116, STS, DFO 500 μM pre-treatment, cells washed before vitamin C 350 μM): rescued vitamin C-induced cell cytotoxicity

C=CC1=C(C)c2cc3[n-]c(cc4nc(cc5[n-]c(cc1n2)c(C)c5C=C)C(C)=C4CCC(=O)O)c(CCC(=O)O)c3C.[Zn+2] [ZnPP, zinc protoporphyrin]
susceptibility to vitamin C toxicity ([1]; control medium, ZnPP 20 μM 3 hours before vitamin C 700 μM 24 hours): more susceptible to vitamin C toxicity

holo-transferrin: Iron bound-transferrin
effect on STS + vitamin C cytotoxicity (HCT116 cells [2]): able to rescue the observed cytotoxicity; also recorded: reversed STS+vitamin C-mediated toxicity

N[C@@H](CCC(=O)N[C@@H](CS)C(=O)NCC(=O)O)C(=O)O [GSH, glutathione]
effect on cell death induction by STS and vitamin C cotreatment [1]: able to revert the massive cell death induction
effect on increase in ROS mediated by STS and STS+vitamin C (ROS in HCT116 cells): fully reversed the increase in ROS

apo-transferrin: iron-free transferrin
effect on STS + vitamin C cytotoxicity (HCT116 cells [2]): not

B1: catalase: Catalase from bovine liver, membrane-impermeable ROS scavenger decomposing hydrogen peroxide (protein, UniProt P00432 2-527, looked up)
Catalase: ADNRDPASDQMKHWKEQRAAQKPDVLTTGGGNPVGDKLNSLTVGPRGPLLVQDVVFTDEMAHFDRERIPERVVHAKGAGAFGYFEVTHDITRYSKAKVFEHIGKRTPIAVRFSTVAGESGSADTVRDPRGFAVKFYTEDGNWDLVGNNTPIFFIRDALLFPSFIHSQKRNPQTHLKDPDMVWDFWSLRPESLHQVSFLFSDRGIPDGHRHMNGYGSHTFKLVNANGEAVYCKFHYKTDQGIKNLSVEDAARLAHEDPDYGLRDLFNAIATGNYPSWTLYIQVMTFSEAEIFPFNPFDLTKVWPHGDYPLIPVGKLVLNRNPVNYFAEVEQLAFDPSNMPPGIEPSPDKMLQGRLFAYPDTHRHRLGPNYLQIPVNCPYRARVANYQRDGPMCMMDNQGGAPNYYPNSFSAPEHQPSALEHRTHFSGDVQRFNSANDDNVTQVRTFYLKVLNEEQRKRLCENIAGHLKDAQLFIQKKAVKNFSDVHPEYGSRIQALLDKYNEEKPKNAVHTYVQHGSHLSAREKANL
effect on STS-mediated sensitization to vitamin C (HCT116 cells [2]; HCT116, STS, catalase 50 U/ml prior to vitamin C 350 μM 24 hours): able to revert STS-mediated sensitization to vitamin C
